Experimental data from PMC12434536, “Radiosynthesis and Preclinical Evaluation of a Carbon-11 Labeled Phosphodiesterase 7 Inhibitor for PET Neuroimaging” (ACS Medicinal Chemistry Letters, 2025).

Experiment: Plasma protein binding (free fraction)
Format: in vitro ADME
Conditions: mouse, rat, and human plasma
Method: The general procedure for lipophilicity measurement was previously described, 4 with minor modification in this work. Briefly, the measurement of LogD value was carried out by mixing [11C]27 (radiochemical purity > 99%) with n-octanol (3.0 g) and PBS (0.1 M, 3.0 g) in a test tube. Both n-octanol and PBS were pre-saturated with each other prior to use. The tube was first vortexed for 5 min, followed by centrifugation (~3500-4000 rpm) for an additional 5 min. PBS and n-octanol were aliquoted, weighed and the radioactivity in each component was measured using a Cobra Model 5002/5003 gamma counter. The LogD was determined by Log [ratio of radioactivity in n-octanol and aqueous layer, respectively] (n = […]
For the evaluation of plasma protein binding,5 55.5 MBq radiotracer was added to 150 μL of plasma, which was pre-incubated under 37 °C for 5 min (n = 3). The samples were incubated at 37 °C for 10 min. To each 150 μL of radiotracer-plasma solution was added 300 μL of ice-cold PBS and all samples were briefly vortexed. […] The radioactivity (in Becquerel) was measured in the protein fraction (Aprotein), filtrate, and filter unit using a gamma counter (Wizard, PerkinElmer), Atotal was calculated as the sum of radioactivity, and the free fraction f u was calculated according to the following eq.: f u = 1-

## COc1ccc(Cl)c2c1C1(CCCCC1)NC(=O)N2 [Compound 27]
  fraction unbound at 10 min: ≥ 0.01
